Data: patent publication US12037302B1, “Compound for treatment of bacterial infections of different etiology in humans” (priority 2021, dated 2024)

What was measured:
[1] = tested on: Escherichia coli O157:H7; assay: Comparative in vitro zone diameter test on Müler-Hinton-Agar; assay type: cell-based; conditions: amount used: novel compound 0.05 mL, Cephalosporin 0.1 mL, Ampicillin 0.2 mL
Description: (§1) Here are the findings of the comparative examination of selected pathogens against the novel compound and the antibiotics Cephalosporin and Ampicillin:
(§2) Evaluation of the results by zone diameter: • 0 mm to 4 mm: resistant: R • 5 mm to 9 mm: moderately sensitive: MS • 10 mm to 15 mm: sensitive: S • 16 mm to 20 mm: very sensitive: VS • 21 mm and more: extremely sensitive: ES

[2] = tested on: Listeria monocytogenes; assay: as above; assay type: cell-based; conditions: amount used: novel compound 0.05 mL, Cephalosporin 0.1 mL, Ampicillin 0.2 mL
Description: as §1, §2

[3] = tested on: Salmonella typhimurium DT104; assay: as above; assay type: cell-based; conditions: amount used: novel compound 0.05 mL, Cephalosporin 0.1 mL, Ampicillin 0.2 mL
Description: as §1, §2

[4] = tested on: Staphylococcus aureus; assay: as above; assay type: cell-based; conditions: amount used: novel compound 0.05 mL, Cephalosporin 0.1 mL, Ampicillin 0.2 mL
Description: as §1, §2

[5] = tested on: Streptococcus pneumoniae; assay: as above; assay type: cell-based; conditions: amount used: novel compound 0.05 mL, Cephalosporin 0.1 mL, Ampicillin 0.2 mL
Description: as §1, §2

[6] = tested on: Streptococcus pyogenes; assay: as above; assay type: cell-based; conditions: amount used: novel compound 0.05 mL, Cephalosporin 0.1 mL, Ampicillin 0.2 mL
Description: as §1, §2

[7] = tested on: Streptococcus uberis; assay: as above; assay type: cell-based; conditions: amount used: novel compound 0.05 mL, Cephalosporin 0.1 mL, Ampicillin 0.2 mL
Description: as §1, §2

[8] = tested on: mice; assay: Acute toxicity LD50, peroral application (p.o.), mice; assay type: in vivo
Description: (§3) Both mice and rats were specially selected for the testing of the toxicity of the compounds, medicine, and chemicals. […] Groups of one hundred (100) lab mice and rats of both genders were placed into glass compartments. They were regularly consuming food manufactured for these lab animals. Water consumption was always available.
(§4) The peroral application (p.o.) acute toxicity LD50 testing was done using the standard procedure: application p.o. with the special lab pipette easy to administer liquid product: orally to the lab animals.
Breathing and cardiac functions were regular, function of thorax was regular and without visual changes. Discomfort symptoms were noticed after the applications, disappeared after 1-3 min, diverse from mouse to mouse.

[9] = tested on: rats; assay: Acute toxicity LD50, peroral application (p.o.), rats; assay type: in vivo
Description: as §3, §4
Breathing and cardiac functions were regular, function of thorax was regular and without visual changes. Discomfort symptoms noticed after the applications, disappeared after 1-3 min, diverse from rat to rat.

[10] = tested on: mice; assay: Acute toxicity LD50, intraperitoneal (i.p.) injection, mice; assay type: in vivo
Description: as §3
(§5) Intraperitoneal testing of the compound LD50 i.e. by pharmaceutical lab needle and syringe, designed for the easy application to the lab animals intraperitoneally.
Breathing and cardiac functions were regular, function of thorax was regular and without visual changes. Discomfort symptoms noticed after the applications, disappeared after 3-5 min, diverse from mouse to mouse.

[11] = tested on: rats; assay: Acute toxicity LD50, intraperitoneal (i.p.) injection, rats; assay type: in vivo
Description: as §3, §5
Breathing and cardiac functions were regular, function of thorax was regular and without visual changes. Discomfort symptoms noticed after the applications, disappeared after 5-6 min, diverse from rat to rat.

Compound | R (evaluation by zone diameter) [1] | zone diameter [1] [mm] | R (evaluation by zone diameter) [2] | zone diameter [2] [mm] | R (evaluation by zone diameter) [3] | zone diameter [3] [mm] | R (evaluation by zone diameter) [4] | zone diameter [4] [mm] | R (evaluation by zone diameter) [5] | zone diameter [5] [mm] | R (evaluation by zone diameter) [6] | zone diameter [6] [mm] | R (evaluation by zone diameter) [7] | zone diameter [7] [mm] | also measured
CC1(C)S[C@@H]2[C@H](NC(=O)[C@H](N)c3ccccc3)C(=O)N2[C@H]1C(=O)O [Ampicilin, Ampicillin] | MS (5 mm to 9 mm: moderately sensitive: MS) | 7 | MS (5 mm to 9 mm: moderately sensitive: MS) | 7 | MS (5 mm to 9 mm: moderately sensitive: MS) | 6 | R (0 mm to 4 mm: resistant: R) | 0 | R (0 mm to 4 mm: resistant: R) | 0 | R (0 mm to 4 mm: resistant: R) | 3 | R (0 mm to 4 mm: resistant: R) | 0 | –
CCN(CC)CC(=O)Nc1c(C)cccc1C.Cc1cc([N+](=O)[O-])c(C(C)C)c([N+](=O)[O-])c1O [Novel Compound, 2,4-dinitro-5-isopropyl-2-methylphenoxy-N-(2,6-dimethylphenylium)-N2,N2-diethylglycinamide] | ES (21 mm and more: extremely sensitive: ES) | 24 | ES (21 mm and more: extremely sensitive: ES) | 33 | ES (21 mm and more: extremely sensitive: ES) | 25 | ES (21 mm and more: extremely sensitive: ES) | 27 | ES (21 mm and more: extremely sensitive: ES) | 31 | ES (21 mm and more: extremely sensitive: ES) | 29 | ES (21 mm and more: extremely sensitive: ES) | 32 | toxicity conclusion ([8]; orally (p.o.), applied doses): low toxic; oral LD50 ([8]; p.o.): over 2,000 μL/kg; animals that changed their behavior and demonstrated light discomfort, running, anxiety ([8]; p.o., 2,000 μL/kg): 23 mice out of one hundred (100); time after which discomfort symptoms disappeared ([8]; p.o., 2,000 μL/kg): 1 to 3 min; lethality during the test ([8]; p.o., doses up to 2,000 μL/kg): No mouse has ended lethally; toxicity conclusion ([9]; orally (p.o.), applied doses): low toxic; oral LD50 ([9]; p.o.): over 2,250 μL/kg; animals that changed their behavior and demonstrated light discomfort, running, anxiety ([9]; p.o., 2,250 μL/kg): 37 rats out of one hundred (100); time after which discomfort symptoms disappeared ([9]; p.o., 2,250 μL/kg): 1 to 3 min; lethality during the test ([9]; p.o., doses up to 2,250 μL/kg): No rat has ended lethally; Intraperitoneal LD50 ([10]; i.p.): over 1,550 μL/kg; animals that changed their behavior and demonstrated discomfort, running, anxiety ([10]; i.p., 1,550 μL/kg): 21 mice out of one hundred (100); time after which discomfort symptoms disappeared ([10]; i.p., 1,550 μL/kg): 3 to 5 min; toxicity conclusion ([10]; i.p., applied doses): low toxic; lethality during the test ([10]; i.p., doses up to 1,550 μL/kg): No mouse has ended lethally; Intraperitoneal LD50 ([11]; i.p.): over 1,750 ML/kg; animals that changed their behavior and demonstrated discomfort, running, anxiety ([11]; i.p., 1,750 μL/kg): 29 rats out of one hundred (100); time after which discomfort symptoms disappeared ([11]; i.p., 1,750 μL/kg): 5 to 6 min; toxicity conclusion ([11]; i.p., applied doses): low toxic; lethality during the test ([11]; i.p., doses up to 1,750 μL/kg): No rat has passed lethally
